Measurements taken from ChEMBL document CHEMBL1126192, “PgH2 analogs as potential antiplatelet derivatives” (J Med Chem, 1992).

Key:
[1] = species: Homo sapiens; test: Compound was evaluated for the inhibition of U-46,619 induced aggregation of human platelet rich plasma; type: functional
[2] = target: T1, Thromboxane A2 receptor (Homo sapiens, UniProt P21731); test: Compound was evaluated for the competitive binding of [3H]U-46619 to washed human platelets at the Thromboxane A2 receptor
T1 sequence (P21731 whole entry): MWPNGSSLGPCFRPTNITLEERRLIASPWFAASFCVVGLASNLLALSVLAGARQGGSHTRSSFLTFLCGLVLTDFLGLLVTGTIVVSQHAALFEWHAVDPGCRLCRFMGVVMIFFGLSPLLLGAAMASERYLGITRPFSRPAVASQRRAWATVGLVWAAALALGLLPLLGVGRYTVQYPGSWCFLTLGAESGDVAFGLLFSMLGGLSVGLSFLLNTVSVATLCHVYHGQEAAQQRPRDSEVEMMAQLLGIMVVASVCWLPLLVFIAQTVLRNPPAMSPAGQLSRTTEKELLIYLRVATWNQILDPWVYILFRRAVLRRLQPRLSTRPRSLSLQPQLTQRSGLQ

| IC50 [1] [µM] | IC50 [2] [µM] | Compound |
| --- | --- | --- |
| 22 | 25 | CCCCCCNC[C@H]1C2CC(CO2)[C@@H]1C/C=C\CCCC(=O)O (stereo partly drawn) |
| 7 | – | O=C(O)CCC/C=C\C[C@H]1C2COC(C2)[C@@H]1CNNC(=O)Nc1ccccc1 (stereo partly drawn) |
